Assay results published in US20260130857A1, “SUSTAINED-RELEASE INJECTABLE COMPOSITION FOR TREATING OR PREVENTING INFLAMMATORY DISEASE, AND METHOD FOR PREPARING SAME” (INVENTAGE LAB INC., priority 2022, published 2026).

What was measured:
MIA-OA model [1] = experiment: Trial for treatment of osteoarthritis (OA): weight-bearing and paw withdrawal tests taken together; assay type: in vivo, rats
Protocol: (§1) After acclimatization, rats were divided into groups, and the area around the left lower limb knee joint of each rate was shaved clean. Then, MIA (monosodium iodoacetate, Sigma, USA), an osteoarthritis-inducing substance, was prepared at a concentration of 60 mg/mL in 0.9% sterile saline and 50 μL was administered intra-articularly to each rat using a BD Ultra-Fine™ II Insulin Syringe. The right knee joint was administered only the same volume of 0.9% sterile saline. Two weeks after MIA administration, the test substances shown in Table 5 below were administered intra-articularly, and the therapeutic efficacy thereof was evaluated.
(§2) CBD solution and Examples 2 to 4 were each administered to the left knee joint cavity 14 days after MIA administration, and only the same amount of 0.9% sterile saline was administered to the right knee joint. The normal control and positive control groups were also administered the same amount of 0.9% saline.

[2] = Rat pharmacokinetic test, single subcutaneous injection; design: species or system SD rats; conditions: male, SD, in vivo, CBD solution 300 μg/head, IVL5005 9 mg/head, rat serum, read-out: blood CBD concentration
Excerpt: The experimental conditions for conducting the rat pharmacokinetic test are as follows:
CBD isolate solution was used as a control. As experimental animals, 6-week-old male SD rats were purchased from Coretech, acclimated for a week, and then tested. The experimental diet was a general feed for experimental animals (Orient), and the rats were raised with free access to water and feed.
At a total of 14 time points, including time 0 (before SC administration of the test substance to the acclimated rats) and 4 hr, 8 hr, 24 hr, 3 d, 5 d, 1 w, 2 w, 4 w, 6 w, 8 w, and 12 w after SC administration of the test substance, 500 to 1,000 μL of blood was sampled from the jugular vein at each time point, and then immediately, the blood was centrifuged at 1,000 g for 10 minutes to separate the serum, which was then frozen and stored at −70° C.

[3] = Body weight measurement in MIA-induced osteoarthritis trial; assay type: in vivo; conditions: MIA rats, single IA dose: CBD solution 300 ug/joint, Examples 2 and 4 2 mg/joint, Example 3 1 mg/joint; test period
Protocol: as §1, §2
However, when CBD was administered, it was confirmed that the body weight gain increased compared to that in the positive control as feed intake activity was improved due to a decrease in pain. This tendency was particularly significant in Examples 3 and 4.

MIA-OA model [4] = experiment: Paw withdrawal threshold test in osteoarthritis model; assay type: in vivo, rats; conditions: thereafter (later than 2 hours after administration)
Protocol: as §1, with “evaluated. […]” for “evaluated.”
The paw withdrawal response was measured before MIA administration (day 0) and 7 days and 14 days after MIA administration (before test drug administration), and the paw withdrawal response was evaluated after applying mechanical stimulation using an electronic von-Frey aesthesiometer (IITC Life Science, USA) 2 hours, 4 hours, 4 days, 7 days, 11 days, 14 days, 21 days, and 28 days after test drug administration. […] In the measurement method, an electronic von-Frey filament was applied perpendicular to the sole of the paw, the threshold (g force) value at which a rapid withdrawal response occurred was measured. The measurement results were analyzed as the ratio of g forces measured on the left and right paws (left/right). […]

C=C(C)[C@@H]1CCC(C)=C[C@H]1c1c(O)cc(CCCCC)cc1O [CBD solution, Cannabidiol]
therapeutic effect compared to the PC group (MIA-OA model [1]; after the early stage / long term (to day 28)): no difference from the PC group
therapeutic effect compared to the PC group (MIA-OA model [1]; early stage of administration): showed an effect
concentration at 1 w ([2]; 1 w after single SC): 361 ng/mL
concentration at 2 w ([2]; 2 w after single SC): 0 ng/mL
concentration at 4 w ([2]; 4 w after single SC): 0 ng/mL
concentration at 7 w ([2]; 7 w after single SC): 0 ng/mL
concentration at 1 d ([2]; 1 d after single SC): 3940 ng/mL
body weight gain compared to positive control group [3]: tended to increase
paw withdrawal threshold ratio compared to control group (MIA-OA model [4]): no difference
